In the NIST ThermoML archive (doi:10.1016/j.fluid.2014.05.006):
Numbers after ± are expanded uncertainties. One block for each compound: values may come before it.

Experiments:
[1] = relative permittivity at zero frequency (dimensionless); conditions: 298 K; 94.77 kPa; Liquid; Parallel plate capacitor
[2] = relative permittivity at zero frequency (dimensionless); xn = mol fraction of the nth substance listed; conditions: 298 K, 94.77 kPa, Liquid, Parallel plate capacitor

relative permittivity at zero frequency [1]: 39.78 ± 4.2
SMILES: Cn1ccnc1 [1-methylimidazole]

relative permittivity at zero frequency ([2]; x2 = 0): 39.78 ± 4.2
relative permittivity at zero frequency ([2]; x2 = 0.1): 40.98 ± 4.3
relative permittivity at zero frequency ([2]; x2 = 0.2): 42.55 ± 4.5
relative permittivity at zero frequency ([2]; x2 = 0.3): 45.87 ± 4.9
relative permittivity at zero frequency ([2]; x2 = 0.4): 46.02 ± 4.9
relative permittivity at zero frequency ([2]; x2 = 0.5): 48.53 ± 5.2
relative permittivity at zero frequency ([2]; x2 = 0.6): 50.04 ± 5.3
relative permittivity at zero frequency ([2]; x2 = 0.7): 50.99 ± 5.4
relative permittivity at zero frequency ([2]; x2 = 0.8): 52 ± 5.5
relative permittivity at zero frequency ([2]; x2 = 0.9): 53.01 ± 7.5
SMILES: Cn1ccnc1 [1-methylimidazole] + O

relative permittivity at zero frequency [1]: 80 ± 8.5
SMILES: O [water]

relative permittivity at zero frequency ([2]; x1 = 1): 80 ± 8.5
SMILES: O [water] + Cn1ccnc1
